Data published in ChEMBL document CHEMBL5550101, “Inhibition of cancer cells by Quinoline-Based compounds: A review with mechanistic insights” (Bioorg Med Chem, 2024).
One block for each compound: values may come before it.

What was measured:
A549 [1] = test: Antiproliferative activity against human A549 cells assessed as reduction in cell growth incubated for 48 hrs by MTT assay; assay type: functional, cell-based; conditions: A549, 48 h
SR = test: Cytotoxicity against human SR cells assessed as cell growth inhibition by measuring lethal concentration by SRB assay; assay type: functional; conditions: read-out: LC50 (the source's name)
HCT-116 = test: Cytotoxicity against human HCT-116 cells assessed as cell growth inhibition by measuring lethal concentration by SRB assay; assay type: functional
OVCAR-3 = test: Cytotoxicity against human OVCAR-3 cells assessed as cell growth inhibition by measuring lethal concentration by SRB assay; assay type: functional
A498 = test: Cytotoxicity against human A498 cells assessed as cell growth inhibition by measuring lethal concentration by SRB assay; assay type: functional
PC-3 = test: Cytotoxicity against human PC-3 cells assessed as cell growth inhibition by measuring lethal concentration by SRB assay; assay type: functional; conditions: read-out: LC50 (the source's name)
M14 = test: Cytotoxicity against human M14 cells assessed as cell growth inhibition by measuring lethal concentration by SRB assay; assay type: functional
MCF7 [2] = test: Cytotoxicity against human MCF7 cells assessed as cell growth inhibition by measuring lethal concentration by SRB assay; assay type: functional
A549 [3] = test: Cytotoxicity against human A549 cells assessed as cell growth inhibition by measuring lethal concentration by SRB assay; assay type: functional; conditions: read-out: LC50 (the source's name)
[4] = target: Platelet-derived growth factor receptor beta (Homo sapiens, UniProt P09619); test: Inhibition of PDGFRbeta (unknown origin)
MCF7 [5] = test: Cytotoxicity against human MCF7 cells assessed as reduction in cell growth incubated for 72 hrs by SRB assay; assay type: functional, cell-based; conditions: MCF7, 72 h
[6] = target: Hepatocyte growth factor receptor (Homo sapiens, UniProt P08581); test: Inhibition of c-Met (unknown origin) by mobility shift assay
MCF7 [7] = test: Cytotoxicity against human MCF7 cells assessed as reduction in cell growth measured for 48 hrs by SRB assay; assay type: functional, cell-based; conditions: MCF7, 48 h
MCF7 [8] = test: Antiproliferative activity against human MCF7 cells assessed as reduction in cell growth incubated for 48 hrs by SRB assay; assay type: functional, cell-based; conditions: MCF7, 48 h
[9] = target: Epidermal growth factor receptor (Homo sapiens, UniProt P00533); test: Inhibition of EGFR (unknown origin)
Sequence of Epidermal growth factor receptor (P00533 whole entry): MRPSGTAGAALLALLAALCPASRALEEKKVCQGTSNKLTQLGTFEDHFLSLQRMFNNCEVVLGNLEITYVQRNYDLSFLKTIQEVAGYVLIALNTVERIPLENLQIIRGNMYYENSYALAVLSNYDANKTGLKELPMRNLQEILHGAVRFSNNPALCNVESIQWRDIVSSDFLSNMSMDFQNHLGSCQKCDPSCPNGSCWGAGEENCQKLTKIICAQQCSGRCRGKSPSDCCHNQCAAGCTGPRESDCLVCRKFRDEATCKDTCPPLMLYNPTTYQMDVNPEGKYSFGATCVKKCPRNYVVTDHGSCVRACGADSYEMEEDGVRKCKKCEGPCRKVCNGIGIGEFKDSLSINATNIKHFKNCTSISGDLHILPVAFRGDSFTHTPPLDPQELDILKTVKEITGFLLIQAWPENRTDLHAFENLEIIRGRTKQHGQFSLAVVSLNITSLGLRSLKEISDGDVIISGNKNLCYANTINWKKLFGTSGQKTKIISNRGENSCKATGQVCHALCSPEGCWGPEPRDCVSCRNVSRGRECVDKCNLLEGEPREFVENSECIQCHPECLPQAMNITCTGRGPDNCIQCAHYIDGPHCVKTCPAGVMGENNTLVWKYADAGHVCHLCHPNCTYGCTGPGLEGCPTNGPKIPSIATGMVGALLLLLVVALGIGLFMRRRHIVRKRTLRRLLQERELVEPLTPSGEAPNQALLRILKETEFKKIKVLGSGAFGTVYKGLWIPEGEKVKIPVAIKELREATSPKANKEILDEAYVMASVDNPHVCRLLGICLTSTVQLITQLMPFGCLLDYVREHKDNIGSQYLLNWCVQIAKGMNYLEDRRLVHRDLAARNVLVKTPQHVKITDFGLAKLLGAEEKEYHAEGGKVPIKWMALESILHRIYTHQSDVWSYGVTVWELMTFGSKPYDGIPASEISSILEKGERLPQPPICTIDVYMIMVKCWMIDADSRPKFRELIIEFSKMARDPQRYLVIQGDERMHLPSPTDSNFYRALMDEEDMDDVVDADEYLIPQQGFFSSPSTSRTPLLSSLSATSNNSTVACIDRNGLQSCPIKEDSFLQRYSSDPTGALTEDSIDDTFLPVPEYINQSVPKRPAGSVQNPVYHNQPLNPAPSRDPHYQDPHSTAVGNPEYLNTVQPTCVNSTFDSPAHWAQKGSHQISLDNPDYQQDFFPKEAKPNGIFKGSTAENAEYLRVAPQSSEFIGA

Sequence of Platelet-derived growth factor receptor beta (P09619 whole entry): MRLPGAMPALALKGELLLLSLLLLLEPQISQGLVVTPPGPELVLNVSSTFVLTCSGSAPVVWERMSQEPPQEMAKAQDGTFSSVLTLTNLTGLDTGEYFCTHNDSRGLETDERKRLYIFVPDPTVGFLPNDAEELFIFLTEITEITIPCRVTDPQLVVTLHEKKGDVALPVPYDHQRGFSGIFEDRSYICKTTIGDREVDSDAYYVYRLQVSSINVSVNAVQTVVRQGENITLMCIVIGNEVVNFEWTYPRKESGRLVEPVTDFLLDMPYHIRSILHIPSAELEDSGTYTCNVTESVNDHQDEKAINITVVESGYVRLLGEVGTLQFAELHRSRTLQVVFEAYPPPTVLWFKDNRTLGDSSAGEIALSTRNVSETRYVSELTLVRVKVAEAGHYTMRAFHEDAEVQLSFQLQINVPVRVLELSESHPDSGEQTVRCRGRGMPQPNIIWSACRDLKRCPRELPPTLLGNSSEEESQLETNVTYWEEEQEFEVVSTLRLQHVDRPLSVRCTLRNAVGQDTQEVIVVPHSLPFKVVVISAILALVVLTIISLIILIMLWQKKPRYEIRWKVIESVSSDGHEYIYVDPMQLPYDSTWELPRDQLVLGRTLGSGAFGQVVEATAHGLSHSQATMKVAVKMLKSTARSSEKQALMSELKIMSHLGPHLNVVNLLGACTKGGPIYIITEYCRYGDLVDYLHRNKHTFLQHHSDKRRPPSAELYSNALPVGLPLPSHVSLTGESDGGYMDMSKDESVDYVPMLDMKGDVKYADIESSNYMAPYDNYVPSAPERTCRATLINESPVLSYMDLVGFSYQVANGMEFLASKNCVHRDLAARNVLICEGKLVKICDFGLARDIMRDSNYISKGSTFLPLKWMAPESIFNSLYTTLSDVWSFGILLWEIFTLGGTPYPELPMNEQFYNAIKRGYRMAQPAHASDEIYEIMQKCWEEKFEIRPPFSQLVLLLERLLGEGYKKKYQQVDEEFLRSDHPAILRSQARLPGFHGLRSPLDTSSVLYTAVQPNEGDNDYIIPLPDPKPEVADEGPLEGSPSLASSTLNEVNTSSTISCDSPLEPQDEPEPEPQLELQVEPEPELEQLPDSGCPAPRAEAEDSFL
Sequence of Hepatocyte growth factor receptor (P08581 whole entry): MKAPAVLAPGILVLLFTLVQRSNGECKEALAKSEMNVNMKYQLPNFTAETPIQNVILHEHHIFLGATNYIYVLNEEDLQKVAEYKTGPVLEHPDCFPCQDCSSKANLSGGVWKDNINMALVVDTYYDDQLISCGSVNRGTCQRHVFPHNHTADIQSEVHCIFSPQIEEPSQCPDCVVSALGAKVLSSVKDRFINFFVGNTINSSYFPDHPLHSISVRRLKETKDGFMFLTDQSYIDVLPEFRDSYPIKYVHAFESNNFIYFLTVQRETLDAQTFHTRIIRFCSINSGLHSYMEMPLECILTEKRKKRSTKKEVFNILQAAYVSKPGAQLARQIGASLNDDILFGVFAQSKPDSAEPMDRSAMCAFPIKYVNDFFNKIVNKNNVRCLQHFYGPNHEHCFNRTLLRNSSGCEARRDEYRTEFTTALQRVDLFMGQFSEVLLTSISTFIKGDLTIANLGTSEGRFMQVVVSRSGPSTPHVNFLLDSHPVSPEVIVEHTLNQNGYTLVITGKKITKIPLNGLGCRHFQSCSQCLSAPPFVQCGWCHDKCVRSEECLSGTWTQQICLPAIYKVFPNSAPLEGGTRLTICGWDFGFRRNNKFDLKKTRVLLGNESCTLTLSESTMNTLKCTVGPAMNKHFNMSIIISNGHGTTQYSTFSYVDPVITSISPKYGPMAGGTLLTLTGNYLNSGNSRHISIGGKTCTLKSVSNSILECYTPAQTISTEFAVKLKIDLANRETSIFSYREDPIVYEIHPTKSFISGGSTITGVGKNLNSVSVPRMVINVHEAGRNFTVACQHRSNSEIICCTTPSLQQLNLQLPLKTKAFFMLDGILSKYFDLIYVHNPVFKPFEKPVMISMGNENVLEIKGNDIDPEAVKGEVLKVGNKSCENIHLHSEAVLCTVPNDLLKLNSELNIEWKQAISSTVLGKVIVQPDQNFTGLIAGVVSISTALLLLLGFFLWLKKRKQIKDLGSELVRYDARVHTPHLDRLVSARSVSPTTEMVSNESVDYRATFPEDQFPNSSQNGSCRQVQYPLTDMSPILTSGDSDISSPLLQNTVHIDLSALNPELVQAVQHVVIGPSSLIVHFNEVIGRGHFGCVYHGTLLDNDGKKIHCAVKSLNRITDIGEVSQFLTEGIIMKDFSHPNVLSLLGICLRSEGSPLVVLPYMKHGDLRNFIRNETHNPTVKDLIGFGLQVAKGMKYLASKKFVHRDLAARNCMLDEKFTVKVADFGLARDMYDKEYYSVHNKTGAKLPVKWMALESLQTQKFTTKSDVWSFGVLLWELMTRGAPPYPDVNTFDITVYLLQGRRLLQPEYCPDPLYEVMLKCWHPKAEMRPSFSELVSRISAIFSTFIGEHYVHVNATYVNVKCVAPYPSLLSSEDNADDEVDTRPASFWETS

SMILES: CCCCOc1ccc(/C=N/Nc2cc(C)nc3ccc(Cl)cc23)cc1
CC50 (SR): > 100 µM | LC50 (HCT-116): > 100 µM | LC50 (OVCAR-3): 7.04 µM | LC50 (A498): 5.67 µM | CC50 (PC-3): 6.55 µM | LC50 (M14): 8.07 µM | LC50 (MCF7 [2]): 6.87 µM | CC50 (A549 [3]): 6.35 µM

SMILES: CCCCCCOc1ccc(/C=N/Nc2cc(C)nc3ccc(Cl)cc23)cc1
CC50 (SR): 8.11 µM | LC50 (OVCAR-3): 6.83 µM | LC50 (A498): 6.55 µM | CC50 (PC-3): 5.83 µM | LC50 (M14): 6.26 µM | LC50 (MCF7 [2]): 6.97 µM | CC50 (A549 [3]): 7.22 µM

SMILES: CC(=O)c1ccc2ncc(C(N)=O)c(Nc3ccc(OCc4ccccc4)cc3)c2c1
IC50 (MCF7 [5]): 10.8 µM

SMILES: CCc1[nH]nc(NC(=O)Cc2ccc(Oc3ccnc4cc(OC)ccc34)cc2OC)c1C
IC50 [6]: 0.003 µM

SMILES: COc1ccc(-c2c(C#N)c(N)nc3c2CCc2cc(OC)ccc2-3)cc1
IC50 (MCF7 [7]): 12 µM

SMILES: N#Cc1c(-c2ccc3ncc(C(N)=O)c(Nc4cccc(Br)c4)c3c2)csc1N
IC50 (MCF7 [5]): 50.6 µM

SMILES: CCCCOc1ccc(/C=N/Nc2cc(C)nc3ccc(Br)cc23)cc1
CC50 (SR): > 100 µM | LC50 (HCT-116): 6.17 µM | LC50 (OVCAR-3): 7.18 µM | LC50 (A498): 5.47 µM | CC50 (PC-3): 6.49 µM | LC50 (M14): 5.88 µM | LC50 (MCF7 [2]): 7.37 µM | CC50 (A549 [3]): 6.61 µM

SMILES: CCCCCOc1ccc(/C=N/Nc2cc(C)nc3ccc(Br)cc23)cc1
CC50 (SR): 21.3 µM | LC50 (HCT-116): 6.35 µM | LC50 (OVCAR-3): 5.92 µM | LC50 (A498): 6.02 µM | CC50 (PC-3): 5.88 µM | LC50 (M14): 6.64 µM | LC50 (MCF7 [2]): 7.93 µM | CC50 (A549 [3]): 7.15 µM

SMILES: COc1ccc2c(c1)CCc1c-2nc(N)c(C#N)c1-c1ccc(OC)c(OC)c1
IC50 [9]: 0.13 µM | IC50 (MCF7 [7]): 14.5 µM

SMILES: COc1ccc2nc(Cl)cc(C3CC(c4ccc(C)cc4)=NN3c3nc(C)c(C(=O)Nc4ccccc4)s3)c2c1 (stereo not drawn)
IC50 (MCF7 [8]): 0.36 µM

SMILES: CCOc1ccc(/C=N/Nc2ccnc3ccc(Br)cc23)cc1
IC50 [4]: 1.86 µM

SMILES: CCOc1ccc(/C=N/Nc2cc(C)nc3ccc(Cl)cc23)cc1
CC50 (SR): 15.5 µM | LC50 (OVCAR-3): 6.36 µM | LC50 (A498): 7.01 µM | CC50 (PC-3): 6.54 µM | LC50 (M14): 5.55 µM | LC50 (MCF7 [2]): 6.6 µM | CC50 (A549 [3]): 6.94 µM

SMILES: Nc1ccc(CC(=O)Nc2ccc3c(c2)CCCN3C(=O)c2ccc(Cl)cc2)cc1
IC50 (A549 [1]): 0.22 µM

SMILES: Cc1ccc(Nc2c(C(N)=O)cnc3ccc(C(=O)/C=C/c4ccc(-c5ccc(Cl)cc5)o4)cc23)cc1
IC50 (MCF7 [5]): 3.35 µM

SMILES: CCCOc1ccc(/C=N/Nc2cc(C)nc3ccc(Cl)cc23)cc1
CC50 (SR): 38.6 µM | LC50 (HCT-116): 6.48 µM | LC50 (OVCAR-3): 6.44 µM | LC50 (A498): 5.79 µM | CC50 (PC-3): 6.39 µM | LC50 (M14): 6.17 µM | LC50 (MCF7 [2]): 6.9 µM | CC50 (A549 [3]): 6.49 µM

SMILES: CCCCCOc1ccc(/C=N/Nc2cc(C)nc3ccc(Cl)cc23)cc1
CC50 (SR): 4.2 µM | LC50 (HCT-116): 5.02 µM | LC50 (OVCAR-3): 6.51 µM | LC50 (A498): 5.13 µM | CC50 (PC-3): 5.98 µM | LC50 (M14): 5.91 µM | LC50 (MCF7 [2]): 7.04 µM | CC50 (A549 [3]): 6.52 µM

SMILES: CCCCCCOc1ccc(/C=N/Nc2cc(C)nc3ccc(Br)cc23)cc1
CC50 (SR): > 100 µM | LC50 (HCT-116): 4.67 µM | LC50 (OVCAR-3): 6.85 µM | LC50 (A498): 6.03 µM | CC50 (PC-3): 5.84 µM | LC50 (M14): 6.67 µM | LC50 (MCF7 [2]): 6.84 µM | CC50 (A549 [3]): 6.61 µM

SMILES: O=C(Cc1ccc([N+](=O)[O-])cc1)Nc1ccc2c(c1)CCCN2C(=O)c1ccc(Cl)cc1
IC50 (A549 [1]): 0.06 µM

Now from value to compound, other results behind:

IC50 (A549 [1]): 0.65 µM
SMILES: O=C(Cc1ccc(Br)cc1)Nc1ccc2c(c1)CCCN2C(=O)c1ccc(Cl)cc1

IC50 [4]: 5 µM
SMILES: COc1ccc(-c2cc3cc(OC)ccc3nc2Nc2ccc(NC(=O)CN3CCN(C)CC3)cc2)cc1

IC50 [4]: 1.76 µM
SMILES: CCCCOc1ccc(/C=N/Nc2ccnc3ccc(Cl)cc23)cc1

IC50 [6]: 0.17 µM
SMILES: CCN(C(=O)c1cc(C(C)C)c(O)cc1O)c1cnc2ccccc2c1

IC50 (A549 [1]): 0.15 µM
SMILES: CCOC(=O)C(=O)Nc1ccc2c(c1)CCCN2C(=O)c1ccc(Cl)cc1

IC50 [4]: 5 µM
SMILES: COc1ccc(-c2cc3ccc(OC)cc3nc2Nc2ccc(NC(=O)CN3CCN(C)CC3)cc2)cc1

IC50 (MCF7 [8]): 0.21 µM
SMILES: COc1ccc2nc(Cl)cc(C3CC(c4ccc(C)cc4)=NN3c3nc(-c4ccccc4)cs3)c2c1 (stereo not drawn)

IC50 (MCF7 [8]): 0.21 µM
SMILES: COc1ccc2nc(O)c(C3CC(c4ccc(C)cc4)=NN3C(C)=O)cc2c1 (stereo not drawn)

IC50 (A549 [1]): 0.97 µM
SMILES: O=C(Cc1ccccc1)Nc1ccc2c(c1)CCCN2C(=O)c1ccc(Cl)cc1

IC50 [6]: 0.004 µM
SMILES: COc1ccc2c(Oc3ccc(CC(=O)Nc4cn(C)nc4C)c(OC)c3)ccnc2c1

IC50 [4]: 2.2 µM
SMILES: CCCCOc1ccc(/C=N/Nc2ccnc3ccc(Br)cc23)cc1

IC50 (MCF7 [8]): 1.18 µM
SMILES: COc1ccc2nc(Cl)cc(C3CC(c4ccc(C)cc4)=NN3c3nc(-c4ccc(Cl)cc4)cs3)c2c1 (stereo not drawn)

IC50 [9]: 0.13 µM
SMILES: COc1ccc(-c2c3c([nH]c(=O)c2C#N)-c2ccc(OC)cc2CC3)cc1
IC50 (MCF7 [7]): 18.1 µM

IC50 (MCF7 [8]): 0.41 µM
SMILES: COc1ccc2nc(Cl)cc(C3CC(c4ccc(C)cc4)=NN3c3nc(C)c(NNc4ccccc4)s3)c2c1 (stereo not drawn)

IC50 [4]: 1.83 µM
SMILES: CCCOc1ccc(/C=N/Nc2ccnc3ccc(Br)cc23)cc1

IC50 (A549 [1]): 3.2 µM
SMILES: O=C(Nc1ccc2c(c1)CCCN2C(=O)c1ccc(Cl)cc1)c1cc(C(F)(F)F)cc(C(F)(F)F)c1

IC50 (MCF7 [8]): 0.32 µM
SMILES: CCOC(=O)c1sc(N2N=C(c3ccc(C)cc3)CC2c2cc(Cl)nc3ccc(OC)cc23)nc1C (stereo not drawn)

IC50 [9]: 0.13 µM
SMILES: COc1ccc2c(c1)CCc1c-2[nH]c(=O)c(C#N)c1-c1ccc(OC)c(OC)c1
IC50 (MCF7 [7]): 13.7 µM

IC50 [4]: 1.13 µM
SMILES: CN1c2ccc(F)cc2SC1C(=O)Nc1cccc2c1N(Cc1ccc(OC3CCNCC3)cc1)CCC2 (stereo not drawn)

IC50 [9]: 0.13 µM
SMILES: COc1ccc2c(c1)CCc1c-2[nH]c(=O)c(C#N)c1-c1ccc(OC)cc1OC
IC50 (MCF7 [7]): 7.21 µM

IC50 [9]: 0.13 µM
SMILES: COc1ccc2c(c1)CCc1c-2nc(N)c(C#N)c1-c1ccc(OC)cc1OC
IC50 (MCF7 [7]): 17.6 µM
